Measured values published in patent US8178506B2, “Oligomeric compounds and compositions for use in modulation of small non-coding RNAs” (Regulus Therapeutics Inc., priority 2003, dated 2012).
In the oligonucleotide strings, read from the 5' end, every base follows the letter of its sugar. An asterisk marks phosphorothioate; unmarked linkages are phosphodiester. Other units and linkages are bracketed, terminal groups are in braces. A string of capitals states the bases alone. e = 2'-O-(2-methoxyethyl) (MOE); [5mC] = 5-methylcytosine; d = 2'-deoxy (DNA)

What was measured:
T47D cells = assay: Caspase-3 activity assay (apoptosis) in T47D cells; conditions: for apoptosis in T47D cells: caspase assay, conclusion from Tables 9-12; for Fold Increase over UTC (caspase-3 activity, apoptosis): 200 nM oligomeric compound
IL-12 mRNA = IL-12 mRNA in LPS-activated primary murine macrophages; type: cell-based, mouse; conditions: normalized to LPS-treated cells without oligomeric compound; for IL-12 mRNA expression, −IFN % UTC: 300 nM oligomeric compound and LPS, no IFN-gamma pretreatment, single experiment; for IL-12 mRNA expression, +IFN % UTC: 300 nM oligomeric compound, stimulation with IFN-gamma and LPS, average of 2 experiments
Protocol: To investigate the role of miRNAs in the immune response, oligomeric compounds of the present invention targeting miRNAs were tested for their effects upon lipopolysaccharide (LPS)-activated primary murine macrophages. Macrophages participate in the immune response, for example, in the recognition and phagocytosis of microorganisms, including bacteria. Interferon-gamma (IFN-gamma) released by helper T cells is one type of signal required for macrophage activation, and LPS can serve as an additional stimulus. LPS is a component of the gram-negative bacterial cell wall and acts as an agonist for toll-like receptor 4 (TLR4), the primary LPS receptor expressed by macrophages. The proinflammatory cytokines interleukin-12 (IL-12) and interleukin-6 (IL-6) are induced by LPS treatment of macrophages, thus the expression of the mRNAs encoding these cytokines was used to evaluate the response of macrophages to LPS following treatment with oligomeric compounds targeting miRNAs.
Macrophages were isolated as follows. Female C57B1/6 mice (Charles River Laboratories, Wilmington, Mass.) were injected intraperitoneally with 1 ml 3% thioglycollate broth (Sigma-Aldrich, St. Louis, Mo.), and peritoneal macrophage cells were isolated by peritoneal lavage 4 days later. The cells were plated in 96-well plates at 40,000 cells/well for one hour in serum-free RPMI adjusted to contain 10 mM HEPES (Invitrogen Life Technologies, Carlsbad, Calif.), allowed to adhere, then non-adherent cells were washed away and the media was replaced with RPMI containing 10 mM HEPES, 10% FBS and penicillin/streptomycin (“complete” RPMI; Invitrogen Life Technologies, Carlsbad, Calif.).
Oligomeric compounds were introduced into the cells using the non-liposomal transfection reagent FuGENE 6 Transfection Reagent (Roche Diagnostics Corp., Indianapolis, Ind.). Oligomeric compound was mixed with FuGENE 6 in 1 mL of serum-free RPMI to achieve a concentration of 10 μL FuGENE per 1000 nM oligomeric compound. The oligomeric compound/FuGENE complex was allowed to form at room temperature for 20 minutes. This mixture was diluted to the desired concentration of oligomeric compound by the addition of the appropriate volume of complete RPMI. The final ratio of FuGENE 6 to oligomeric compound was 1 μL of FuGENE 6 per 100 nM oligomeric compound. A volume of 100 μL of oligomeric compound/FuGENE/RPMI was added to each well of the 96-well plate in which the macrophages were cultured. Each oligomeric compound treatment was repeated in triplicate.
Following oligomeric compound treatment, cells were stimultated with LPS. Cells were cultured in the presence of the transfection complex for approximately 24 to 28 hours at 37° C. and 5% CO2, after which the medium containing the transfection complex was removed from the cells, and complete RPMI containing 100 ng/mL LPS (Sigma-Aldrich Corp., St. Louis, Mo.) was added to the cells for a period of approximately 24 hours. Control samples included (1) cells receiving no oligomeric compound, stimulated with LPS and (2) cells receiving neither oligomeric compound nor LPS treatment.
In another embodiment, following oligomeric compound treatment, cells were first activated by IFN-gamma, to amplify the response to LPS. Cells were cultured in the presence of the transfection complex for approximately 24 hours at 37° C. and 5% CO2, at which point the medium containing the transfection complex was removed from the cells, and complete RPMI containing 100 ng/mL recombinant mouse IFN-gamma (R&D Systems, Minneapolis, Minn.) was added to the cells. After the 4 hour treatment with INF-gamma, cells were treated with 100 ng/mL LPS for approximately 24 hours. Control samples included (1) cells receiving no oligomeric compound, stimulated with LPS and (2) cells receiving neither oligomeric compound nor LPS treatment. […]

adipocytes = assay: Triglyceride accumulation assay in adipocytes; type: cell-based, human; conditions: differentiating adipocytes transfected with oligomeric compound; Table 75
aP2 = aP2 mRNA expression in adipocytes (real-time PCR); type: cell-based, human; conditions: differentiating adipocytes transfected with oligomeric compound; Table 75
HSL = HSL mRNA expression in adipocytes (real-time PCR); type: cell-based, human; conditions: differentiating adipocytes transfected with oligomeric compound; Table 75
Glut4 = Glut4 mRNA expression in adipocytes (real-time PCR); type: cell-based, human; conditions: differentiating adipocytes transfected with oligomeric compound; Table 75
PPARγ = PPARγ mRNA expression in adipocytes (real-time PCR); type: cell-based, human; conditions: differentiating adipocytes transfected with oligomeric compound; Table 75
[1] = test system: BJ, B16-F10, T47D, T47Dp53 and HeLa cells; assay: Cell cycle assay (propidium iodide flow cytometry), cell line panel; type: cell-based; conditions: for G1 (percentage of cells in phase of the cell cycle) / G2/M (percentage of cells in phase of the cell cycle) / S (percentage of cells in phase of the cell cycle) / SubG1 (percentage of cells in phase of the cell cycle) / aneuploid (percentage of cells): 150 nM oligomeric compound, 4.5 μg/ml LIPOFECTIN, after 72 hours, propidium iodide flow cytometry
HeLa cells = assay: Cell cycle assay in HeLa cells; type: cell-based, human; conditions: HeLa cells, 150 nM oligomeric compound
[2] = 24 hours, relative to untreated control (UTC = 100)
[3] = 48 hours after treatment, relative to untreated control (UTC=100)

For “328372 (eT*eT*eT*eG*eA*dT*dA*dG*dT*dT*dT*dA*dG*dA*d[5mC]*eA*e[5mC]*eA*eA*eA; antisense) [compound 328372]”, the “Fold Increase over UTC (caspase activity)” value (T47D cells; T47D cells, 200 nM, 48 hours, relative to untreated control) was 1.0.

With “CCGAGGGTCTAACCCAGCCC (antisense; same sequence listed as MOE 5-10-5 gapmer and as uniform MOE, further chemistry not given here) [ISIS 328638]” the “apoptosis in T47D cells” value (T47D cells; 200 nM) was “prevent or have a protective effect from apoptosis”.

For “AAAAATAATCTCTGCACAGG (antisense; same sequence listed as MOE 5-10-5 gapmer and as uniform MOE, further chemistry not given here) [ISIS 328657]”, the “apoptosis in T47D cells” value (T47D cells; 200 nM) was “prevent or have a protective effect from apoptosis”.

In the case of “TGCTCAGCCAGCCCCATTCT (antisense; same sequence listed as MOE 5-10-5 gapmer and as uniform MOE, further chemistry not given here) [ISIS 328645]”, the “apoptosis in T47D cells” value (T47D cells; 200 nM) is reported as “induce apoptosis”.

With “GACAAGGTGGGAGCGAGTGG (antisense; same sequence listed as MOE 5-10-5 gapmer and as uniform MOE, further chemistry not given here) [ISIS 328644]” the “apoptosis in T47D cells” value (T47D cells; 200 nM) was “prevent or have a protective effect from apoptosis”.

In the case of “328432 (antisense eG*eA*eG*e[5mC]*eA*dT*dG*d[5mC]*dA*dA*d[5mC]*dA*d[5mC]*dT*d[5mC]*eT*eG*eT*eG*e[5mC]) [compound 328432]”, the “Fold Increase over UTC (caspase-3 activity, apoptosis)” value (T47D cells; T47D cells, 48 hours, experiment of Table 12) is reported as 0.6 fold.

With “328386 (eA*e[5mC]*e[5mC]*eT*eG*dT*dG*dT*dA*dA*d[5mC]*dA*dG*d[5mC]*d[5mC]*eG*eT*eG*eT*eA; antisense) [compound 328386]” the “Fold Increase over UTC (caspase-3 activity, apoptosis)” value (T47D cells; T47D cells, 48 hours, experiment of Table 11) was 0.7 fold.

“341786 (antisense CGCAAGGUCGGUUCUACGGGUG; all 2'-MOE, all phosphorothioate, methylation of C and T or U not given here) [compound 341786]” was tested, and the “IL-12 mRNA expression, −IFN % UTC” value (IL-12 mRNA) was 266 % UTC and the “IL-12 mRNA expression, +IFN % UTC” value (IL-12 mRNA) was 99 % UTC.

In the case of “340348 (antisense CTACCTGCACGAACAGCACTTT; all 2'-MOE, all phosphorothioate, methylation of C not given here) [compound 340348]”, the “TG (triglyceride accumulation)” value (adipocytes) is reported as 48 percentage of untreated control (UTC), the “aP2 mRNA” value (aP2) is reported as 68 percentage of untreated control (UTC) and the “HSL mRNA” value (HSL) is reported as 57 percentage of untreated control (UTC). The “GLUT4 mRNA” value (Glut4) was 52 percentage of untreated control (UTC), the “PPAR gamma mRNA” value (PPARγ) was 78 percentage of untreated control (UTC) and the “G1 (percentage of cells in phase of the cell cycle)” value [1] was 53.9%. For the same substance, the “G2/M (percentage of cells in phase of the cell cycle)” value [1] was 14.3%, the “S (percentage of cells in phase of the cell cycle)” value [1] was 31.8% and the “SubG1 (percentage of cells in phase of the cell cycle)” value [1] was 14.1%. The “aneuploid (percentage of cells)” value [1] was 12.3%.

With “341793 (antisense CCAUAAAGUAGGAAACACUACA; all 2'-MOE, all phosphorothioate, methylation of C and T or U not given here) [compound 341793]” the “IL-12 mRNA expression, −IFN % UTC” value (IL-12 mRNA) was 202 % UTC and the “IL-12 mRNA expression, +IFN % UTC” value (IL-12 mRNA) was 147 % UTC.

With “341790 (antisense CGAAGGCAACACGGAUAACCUA; all 2'-MOE, all phosphorothioate, methylation of C and T or U not given here) [compound 341790]” the “IL-12 mRNA expression, −IFN % UTC” value (IL-12 mRNA) was 318 % UTC and the “IL-12 mRNA expression, +IFN % UTC” value (IL-12 mRNA) was 84 % UTC.

With “TACTTTATATAGAACACAAG (chemistry not given here) [ISIS 340365, 5-10-5 gapmer PS; targets mir-92-2]” the “percentage of aneuploid cells” value ([1]; 150 nM, 72 hours (Table 29)) was “higher than average percentages of aneuploid cells”.

“CCGAGCTCTCTTATCAACAG (e[5mC]*e[5mC]*eG*eA*eG*d[5mC]*dT*d[5mC]*dT*d[5mC]*dT*dT*dA*dT*d[5mC]*eA*eA*e[5mC]*eA*eG) [ISIS 183891, 5-10-5 gapmer targeting kinesin-like 1 (Eg5), positive control, reference compound]” was tested, and the “cell cycle delay or arrest in all cell lines” value ([1]; BJ 200 nM, T47D, T47Dp53, HeLa, B16 150 nM, 48 hours) was “delay or arrest in G2/M phase”.

In the case of “340365 (antisense TACTTTATATAGAACACAAG; sugars from the 5' end e5 d10 e5, all phosphorothioate, methylation of C not given here) [compound 340365]”, the “G1 (percentage of cells in phase of the cell cycle)” value [1] is reported as 55.2%, the “G2/M (percentage of cells in phase of the cell cycle)” value [1] is reported as 15.4% and the “S (percentage of cells in phase of the cell cycle)” value [1] is reported as 29.4%. For the same substance, the “SubG1 (percentage of cells in phase of the cell cycle)” value [1] was 4.3%, the “aneuploid (percentage of cells)” value [1] was 18.3% and the “% cells aneuploid” value (HeLa cells; [2]) was 84%. For the same substance, the “% cells in cell cycle phase G1” value (HeLa cells; [2]) was 125%, the “% cells in cell cycle phase G2/M” value (HeLa cells; [2]) was 114% and the “% cells in cell cycle phase S” value (HeLa cells; [2]) was 71%. For the same substance, the “% cells in cell cycle phase subG1” value (HeLa cells; [2]) was 109%, the “% cells in cell cycle phase: G1” value (HeLa cells; [3]) was 99% and the “% cells in cell cycle phase: G2/M” value (HeLa cells; [3]) was 109%. For the same substance, the “% cells in cell cycle phase: S” value (HeLa cells; [3]) was 94%, the “% cells in cell cycle phase: aneuploid” value (HeLa cells; [3]) was 129% and the “% cells in cell cycle phase: subG1” value (HeLa cells; [3]) was 71%.

With “340345 (antisense GGAACUUAGCCACUGUGAA; all 2'-MOE, all phosphorothioate, methylation of C and T or U not given here) [compound 340345]” the “IL-12 mRNA expression, −IFN % UTC” value (IL-12 mRNA) was 104 % UTC and the “IL-12 mRNA expression, +IFN % UTC” value (IL-12 mRNA) was 78 % UTC.

In the case of “341815 (antisense CAUCGUUACCAGACAGUGUUA; all 2'-MOE, all phosphorothioate, methylation of C and T or U not given here) [compound 341815]”, the “IL-12 mRNA expression, −IFN % UTC” value (IL-12 mRNA) is reported as 190 % UTC and the “IL-12 mRNA expression, +IFN % UTC” value (IL-12 mRNA) is reported as 157 % UTC.

“341811 (antisense UCCACAUGGAGUUGCUGUUACA; all 2'-MOE, all phosphorothioate, methylation of C and T or U not given here) [compound 341811]” was tested, and the “IL-12 mRNA expression, −IFN % UTC” value (IL-12 mRNA) was 154 % UTC and the “IL-12 mRNA expression, +IFN % UTC” value (IL-12 mRNA) was 88 % UTC.

For “328364 (eT*e[5mC]*eT*eT*eA*dA*dG*dT*d[5mC]*dA*d[5mC]*dA*dA*dA*dT*e[5mC]*eA*eG*e[5mC]*eA) [compound 328364]”, the “G1 (percentage of cells in phase of the cell cycle)” value [1] was 61.5%, the “G2/M (percentage of cells in phase of the cell cycle)” value [1] was 14.3% and the “S (percentage of cells in phase of the cell cycle)” value [1] was 24.2%. The “SubG1 (percentage of cells in phase of the cell cycle)” value [1] was 1.9% and the “aneuploid (percentage of cells)” value [1] was 15.1%.

For “TCATAGCCCTGTACAATGCTGCT (anti-miR; chemistry not fully specified) [ISIS 327906, uniform 2′-MOE PS; targets mir-103-1]”, the “percentage of cells in the G2/M phase” value ([1]; 150 nM, 72 hours (Table 29)) was “increased percentage of cells in the G2/M phase” and the “percentage of cells with hypodiploid DNA content (subG1)” value ([1]; 150 nM, 72 hours (Table 29)) was “increased percentage of cells with hypodiploid DNA content”.
